# PubChem BioAssay AID2384 (Southern Research Specialized Biocontainment Screening …, 2010)
# System: S. typhi GFP reporter counter-screen, fluorescence, 4 h
# Assay: S. typhi counter-screen signal inhibition – fluorescence, 4 h, counter-screen for PhoP regulon inhibitor project, dose response (AID 2384)
row,SMILES,IC50 [µM]
1,O=C(NNc1nc2ccc(F)cc2s1)c1cccc(F)c1,46.8
2,CCCCCCCCCCn1c2c(c(=N)c3c1CCC3)CCC2,9.77
3,CCOc1ccc(Nc2c3ccccc3nc3ccccc23)cc1,19.6
4,NC(=O)SCC(=O)Nc1ccc(Cl)cc1,46.2
5,CSc1ccc2c(c1)C(N1CCN(C)CC1)Cc1ccccc1S2 (stereo not drawn),27.5
6,Brc1ccc2c(c1)C(OC1CN3CCC1CC3)c1ccccc1CS2 (stereo not drawn),31.8
7,Clc1cccc(/C=N\Nc2nccs2)c1,15.8
8,Nc1nc(Nc2cccc(F)c2)nc2ccccc12,22.5
9,C#CCOCCOCCOCCNc1nc(N2CCN(C(=O)[C@H](Cc3ccc(O)cc3)n3cc([C@@H](N)CC(C)C)nn3)CC2)nc(N2CCN(C(=O)[C@H](Cc3cc4ccccc4[nH]3)n3cc([C@@H](N)CC(C)C)nn3)CC2)n1,41.8
10,C/C(=N\N=C(N)N)c1ccc(Cl)c(Cl)c1,64.4
11,CC[N+](C)(CC)CCC[n+]1c(-c2ccccc2)c2cc(N)ccc2c2ccc(N)cc21,128
12,COCCCNC(=S)NNC(=O)c1ccccn1,23.7
13,CCN(CC)CCn1c(=N)n(CC(O)COc2cccc(C)c2)c2ccccc21 (stereo not drawn),23.3
14,Cc1ccc2c(c1)N/C(=C(\C=C(/Cl)[N+](=O)[O-])[N+](=O)[O-])N2,131
15,Oc1c(Cl)cc(CN2CCCCC2)c2cccnc12,9.15
16,N/C(=N\OS(=O)(=O)c1ccc2ccccc2c1)c1cccnc1,17.3
17,COc1cccc(F)c1C(C[N+](=O)[O-])c1c(N)n(C)c(=O)n(C)c1=O (stereo not drawn),89.2
18,O=C(NNC(=S)NC(=O)c1ccco1)c1ccc(F)cc1,130
19,CCCCCCC[N+](CC)(CC)CCCCc1ccc(Cl)cc1,37.3
20,O=C(CCc1ccccc1)NNC(=O)c1ccccn1,57.8
21,Oc1c(I)cc(Cl)c2cccnc12,5.62
22,CN(C)CCCN(C(=O)COc1ccccc1)c1nc2ccc(Cl)cc2s1,40.5
23,CC(Nc1nc(N2CCCC2)nc2ccccc12)c1ccccc1 (stereo not drawn),76

row,SMILES,IC50 [µM]
1,O=C(O)c1cc2c(cn1)[nH]c1ccccc12,92.6
2,Nc1ncn([C@@H]2O[C@H](CO)[C@@H](O)[C@H]2O)c(=O)n1,46.2
3,CCCCCCOc1ccc(CN2CCN(CC)CC2)cc1,100
4,CCCCCOc1ccc(C)cc1CN(CCCl)CCCl,70.3
5,CCOc1ccc(-c2cc(C)[n+](CCN(CC)CC)c(-c3ccc(OCC)cc3)c2)cc1,26.4
6,Cc1ccc2nc(N(CCCN(C)C)C(=O)c3sc4ccccc4c3Cl)sc2c1,24.3
7,COc1cc(/C=C2/C(=O)NN(c3ccc(C)c(Cl)c3)C2=O)cc([N+](=O)[O-])c1O,74.6
8,N=C(N)c1ccc(/C=C/c2ccc(C(=N)N)cc2O)cc1,10.5
9,CC[C@@H](C)[C@H](CNC)NC[C@@H](Cc1cccc2ccccc12)NCCc1cccc(C(F)(F)F)c1,18.8
10,CCCCCCCCNc1ncnc2ccccc12,33.2
11,O=C(Cc1ccccc1)N/N=C/c1cc(Br)cc(Cl)c1O,26.4
12,O=C(Oc1c(Cl)cc(Cl)c2cccnc12)c1ccco1,15.6
13,Cc1[nH]c2ccc(C(=O)Nc3ccncc3)cc2c1C,90.8
14,Oc1c(CN2CCCCC2)cc(Br)c2cccnc12,15.7
15,COc1ccc(C2NCCc3c2[nH]c2ccccc32)cc1COc1ccc(F)cc1 (stereo not drawn),35.1
16,CN(C)CCCn1c(SCC(=O)N2c3ccccc3Sc3ccccc32)nc2ccccc2c1=O,47.2
17,Cc1ccc(C(C[N+](=O)[O-])n2nc(C)cc2C)cc1 (stereo not drawn),27.1
18,CCn1nc(C(=O)O)c(=O)c2cc3c(cc21)OCO3,84.1
19,Cc1ccc2nc(NCc3ccccc3)[nH]c2c1,35.2
20,CSc1ccc2c(c1)C(N1CCN(C)CC1)Cc1ccc(F)cc1S2 (stereo not drawn),23.9
21,O=C(N/N=C/c1cc(O)ccc1Br)c1cccnc1,69.4
22,O=C(CCN1CCN(C(=O)c2ccccc2)CC1)c1ccc(Br)cc1,81.6
23,Cc1ccc(C(=O)N/N=C\c2sccc2C)cn1,136

row,SMILES,IC50 [µM]
1,CCCCC(=O)NNC(=S)NC(=O)CCC,92.6
2,CC[C@H]1OC(=O)[C@H](C)[C@@H](O[C@H]2C[C@@](C)(OC)[C@@H](O)[C@H](C)O2)[C@H](C)[C@@H](O[C@@H]2O[C@H](C)C[C@H](N(C)C)[C@H]2O)[C@](C)(O)C[C@@H](C)CN(C)[C@H](C)[C@@H](O)[C@]1(C)O,1.28
3,OCCNc1nc(Nc2ccc(Br)cc2)nc2ccccc12,15.9
4,O=[N+]([O-])c1cc(CN2CCN(c3cccc(C(F)(F)F)c3)CC2)c2cccnc2c1O,23.1
5,O=c1[nH]c(=S)ccn1C1OC(CO)C(O)C1O (stereo not drawn),12.4
6,NC(N)=Nc1nc(-c2ccccc2)c2cc(Cl)ccc2n1,90.2
7,CN(C)CCNc1oc(COc2ccc(-c3ccccc3)cc2)nc1C#N,39
8,O=C(CCN1CCN(c2ccccc2)CC1)c1ccc(Cl)cc1,70.3
9,O=c1c(O)cccc2cc(O)c(O)c(O)c12,18.5
10,CN(C)CCCNc1cc(C(C)(C)C)nc2c(-c3ccc(Cl)cc3)cnn12,18.7
11,C#CCOCCOCCOCCNc1nc(N2CCN(C(=O)[C@H](CCCCN)n3cc([C@@H](N)CC(C)C)nn3)CC2)nc(N2CCN(C(=O)[C@H](Cc3cc4ccccc4[nH]3)n3cc([C@@H](N)Cc4ccc(O)cc4)nn3)CC2)n1,26.9
12,O=C(CC(=O)c1ccccc1O)c1cccc(F)c1,28.9
13,c1ccc(Nc2nc(NCC3CCCO3)c3ccccc3n2)cc1 (stereo not drawn),26
14,CCCCCCCCCCOC(=O)Cn1c(COc2ccc(Cl)cc2)[n+](C)c2ccccc21,10.1
15,O=C(N/N=C/c1ccccn1)c1ccc(Br)o1,45.1
16,Cc1[nH]cnc1C(=O)N/N=C/c1ccc([N+](=O)[O-])s1,37.2
17,COc1cc(CNCCO)cc(Cl)c1OCc1ccc(Cl)cc1Cl,22.4
18,CCCCCOc1ccc(CSC(=N)N)cc1[N+](=O)[O-],30.4
19,Cc1cccc(C(=O)NNC(=S)NC(=O)c2cccs2)c1,66.3
20,Cc1ccc(S(=O)(=O)NNc2ccccc2)cc1,89.5
21,CC1CC(C)CN(CCOc2ccc(Cl)cc2Cl)C1 (stereo not drawn),88.2
22,O=C(C[n+]1ccc(-c2ccccc2)cc1)Nc1ccc([N+](=O)[O-])cc1,26.3
23,Cc1ccc(-n2c(-c3ccc(Br)cc3)c[n+]3c2CCc2ccc4cccnc4c2-3)cc1,40.6

row,SMILES,IC50 [µM]
1,CC[C@H](C)[C@@H](CN[C@H](C)CNC)NCCC(c1ccccc1)c1ccccc1,50.2
2,CN(C)CCOC(=O)c1sc2ccccc2c1Cl,125
3,O=C(NC(=S)NNC(=O)c1cccs1)c1ccco1,52.3
4,O=C(O)c1cn(C2CC2)c2cc(N3CCN(S(=O)(=O)c4ccc5c(c4)OCCO5)CC3)c(F)cc2c1=O,15.9
5,COc1ccc(NC(=O)c2[nH]ncc2[N+](=O)[O-])cc1,133
6,C#CCOCCOCCOCCNc1nc(N2CCN(C(=O)CCCCCCCCCCNC(=O)[C@H]([C@@H](C)CC)n3cc(CCCCN=C(N)N)nn3)CC2)nc(N2CCN(C(=O)CCCCCCCCCCNC(=O)[C@H](CCCCN)n3cc(C)nn3)CC2)n1,47.3
7,CCCNC1=C(C)C(=O)C2=C(C1=O)C(COC(N)=O)[C@]1(OC)C3NC3CN21 (stereo partly drawn),21.3
8,C[C@H]1c2cccc(O)c2C(O)=C2C(=O)[C@]3(O)C(O)=C(C(N)=O)C(=O)[C@@H](N(C)C)[C@@H]3[C@@H](O)[C@@H]21,1.56
9,Oc1c(Br)cc(Br)cc1C=Nc1ccc2[nH]ncc2c1,21.8
10,O=c1[nH]c(-c2ccccn2)nc(C(F)(F)F)c1Br,51.3
11,O=C(CCN1Cc2ccccc2C1)c1ccc2c(c1)OCCO2,137
12,CCN1CCCC1CNC(=O)c1cc2cc(F)ccc2[nH]1 (stereo not drawn),19
13,OCCCNc1c2ccccc2nc2ccccc12,109
14,Oc1ccc(C[C@H]2CNCCN2CCCCC2CCCCC2)cc1,70.5
15,COc1nsnc1NS(=O)(=O)c1ccc(NC(=S)NC(=O)c2cccnc2)cc1,68.5
16,Cc1ccc(C)c(N/C(N)=N/c2nc(C)cc(C)n2)c1,67.4
17,Nc1cc2c3c(cccc3c1)C(=O)N(CCN1CCCC1)C2=O,129
18,CC1COc2c(N3CCN(C)CC3)c(F)cc3c(=O)c(C(=O)O)cn1c23 (stereo not drawn),1.73
19,O=C(CCN1CCN(c2ccccc2)CC1)N/N=C/c1ccc([N+](=O)[O-])o1,131
20,Cc1ccc2c(c1)c1c(n2CC(O)CN2CCC(C)CC2)CCCC1 (stereo not drawn),82.4
21,Cc1ccc(C(C[N+](=O)[O-])c2c(N)n(C)c(=O)n(C)c2=O)cc1 (stereo not drawn),61.3
22,CC(C)CCC(CCNCc1ccccn1)c1ccc(Cl)cc1 (stereo not drawn),54.7
23,Oc1ccc(CN2CCCc3ccccc32)c2cccnc12,57.2

row,SMILES,IC50 [µM]
1,COc1cc([N+](=O)[O-])cc(/C=N/NC(=O)c2cccnc2)c1O,76.1
2,COc1ccccc1NC(=O)CN1CCC(c2nc3ccc(C)cc3[nH]2)CC1,143
3,COc1cccc(Nc2nc(NCC3CCCO3)c3ccccc3n2)c1 (stereo not drawn),31.1
4,c1ccc2c(c1)C(=NC1CCCCC1)NC2=NC1CCCCC1,77.2
5,CCCCc1ccc2[nH]cc(CCN)c2c1,77
6,O=C(CCc1ccccc1)NNC(=S)NC(=O)c1ccccc1,63
7,CCCCCCCCCCOC(=O)Cn1c(COc2cccc(OC)c2)[n+](C)c2ccccc21,10.2
8,Fc1ccc(NC(=S)Nc2cc(-c3ccccc3)[nH]n2)cc1Cl,71.7
9,CN1CCC(=C2c3ccccc3C=Cc3ccccc32)CC1,77.5
10,O=C(Nc1ccncc1)Nc1ccc(Cl)cc1,85.2
11,O=C(CN1CCCC1)Nc1ccc(-c2nc3cc(NC(=O)CN4CCCC4)ccc3o2)cc1,57.1
12,Cc1cccc(Nc2nc(NCc3ccco3)c3ccccc3n2)c1,14
13,CCCCCSc1cc(OC)c(CCNC)cc1OC,52.2
14,Oc1c(Br)cc(Br)cc1C=Nc1cccc2ncccc12,21.8
15,O=C1C=CC(=O)N1CCCCCCN1C(=O)C=CC1=O,79.8
16,C#CCOCCOCCOCCNc1nc(N2CCN(C(=O)CCCCCCCCCCNC(=O)[C@H](CCCCN)n3cc(C)nn3)CC2)nc(N2CCN(C(=O)CCCCCCCCCCNC(=O)[C@H](CO)n3cc(CCCSC)nn3)CC2)n1,130
17,CCN(CC(=O)NC(C)(C)C)C(=O)COc1c(Cl)cc(Cl)c2ccc(C)nc12,19
18,Cc1ccc(Nc2c3c(nc4ccccc24)CCC3)cc1,25.8
19,CC1CCN(CCCNC(=O)c2ccc3c(=O)n(Cc4ccc(Cl)cc4)c(=S)[nH]c3c2)CC1,47.8
20,NC(N)=N/N=C/c1ccc(OCc2ccc(Cl)cc2)cc1,26.7
21,CCCCCN=C(N)N/N=C/c1c[nH]c2ccc(OC)cc12,26.9
